Measurements from ChEMBL document CHEMBL4270488, “Antibacterial Compounds from Marine Bacteria, 2010-2015” (J Nat Prod, 2017).
Values after ≈ are worked out from the molar mass of the structure shown. Where a SMILES comes first, the peptide text is derived from it. [ ]: non-standard residue; d: D form. The star is where a group is joined. Tridecanoyl(3R-OH,11-Me) = CCC(C)CCCCCCC[C@@H](O)CC(=O)*; X2 = CCC(C)CC(C)CCCCC[C@@H](O)CC(=O)*; X1 = CCC(C)CC(C)CCCC[C@@H](O)CC(=O)*

Key:
Staphylococcus aureus [1] = test: Antibacterial activity against Staphylococcus aureus by broth dilution assay; assay type: functional
Bacillus subtilis [2] = test: Antibacterial activity against Bacillus subtilis by broth dilution assay; assay type: functional
Pseudomonas aeruginosa = test: Antibacterial activity against Pseudomonas aeruginosa by broth dilution assay; assay type: functional
Salmonella typhi = test: Antibacterial activity against Salmonella typhi by broth dilution assay; assay type: functional, Salmonella enterica subsp. enterica serovar Typhi; settings: Salmonella enterica
Escherichia coli [3] = test: Antibacterial activity against Escherichia coli by broth dilution assay; assay type: functional
Staphylococcus aureus [4] = test: Antibacterial activity against methicillin-resistant Staphylococcus aureus; assay type: functional
Bacillus subtilis [5] = test: Antibacterial activity against Bacillus subtilis by serial dilution assay; assay type: functional
Micrococcus luteus = test: Antibacterial activity against Micrococcus luteus by serial dilution assay; assay type: functional
Escherichia coli [6] = test: Antibacterial activity against Escherichia coli by serial dilution assay; assay type: functional
Proteus vulgaris = test: Antibacterial activity against Proteus vulgaris by serial dilution assay; assay type: functional

## CCC(C)CC(C)CCCC[C@@H](O)CC(=O)N[C@@H](CCC(=O)O)C(=O)N[C@@H](CC(C)C)C(=O)N[C@@H](CC(C)C)C(=O)N[C@@H](CC(C)C)C(=O)O (some centres undefined) (X1-ELLL-OH)
Staphylococcus aureus [1]
  MIC: 0.03 µg/mL (≈ 0.0421 µM)
Bacillus subtilis [2]
  MIC: 0.03 µg/mL (≈ 0.0421 µM)
Pseudomonas aeruginosa
  MIC: 0.01 µg/mL (≈ 0.014 µM)
Salmonella typhi
  MIC: 0.01 µg/mL (≈ 0.014 µM)

## CO[C@@H]1/C=C/[C@H](O)C[C@@H](O)C/C=C\C=C\[C@@H](O)C/C=C/C=C\C(=O)O[C@H](C)CCC[C@@H]1O
Bacillus subtilis [2]
  MIC: ≥ 16 µg/mL
Escherichia coli [3]
  MIC: ≥ 16 µg/mL

## C[C@@H](O)CCC/C=C/C=C/[C@H](O)C[C@@H](O)C/C=C\C=C\[C@@H](O)C/C=C/C=C\C(=O)O
Bacillus subtilis [2]
  MIC: 8 µg/mL (≈ 19 µM)
Escherichia coli [3]
  MIC: 8 µg/mL (≈ 19 µM)

## CCC(C)CCCCCCC[C@@H](O)CC(=O)N[C@@H](CCC(=O)O)C(=O)N[C@@H](CC(C)C)C(=O)N[C@@H](CC(C)C)C(=O)N[C@@H](C(=O)N[C@@H](CC(=O)O)C(=O)N[C@@H](CC(C)C)C(=O)N[C@@H](CC(C)C)C(=O)O)C(C)C (stereo partly drawn) ({Tridecanoyl(3R-OH,11-Me)}-ELL[dV]DLL-OH)
Staphylococcus aureus [1]
  MIC: 16 µg/mL (≈ 15.4 µM)
Bacillus subtilis [2]
  MIC: 16 µg/mL (≈ 15.4 µM)
Pseudomonas aeruginosa
  MIC: 16 µg/mL (≈ 15.4 µM)
Salmonella typhi
  MIC: 16 µg/mL (≈ 15.4 µM)

## CCC(C)CCCCCCC[C@@H](O)CC(=O)N[C@@H](CCC(=O)OC)C(=O)N[C@@H](CC(C)C)C(=O)N[C@@H](CC(C)C)C(=O)N[C@@H](CC(C)C)C(=O)O (stereo partly drawn) ({Tridecanoyl(3R-OH,11-Me)}-E(OMe)LLL-OH)
Staphylococcus aureus [1]
  MIC: 0.03 µg/mL (≈ 0.0413 µM)
Bacillus subtilis [2]
  MIC: 0.01 µg/mL (≈ 0.0138 µM)
Pseudomonas aeruginosa
  MIC: 0.03 µg/mL (≈ 0.0413 µM)
Salmonella typhi
  MIC: 0.01 µg/mL (≈ 0.0138 µM)

## C[C@@H](O)CCC/C=C/C=C/[C@H](O)C[C@@H](O)C/C=C\C=C\C(=O)O
Bacillus subtilis [2]
  MIC: ≥ 16 µg/mL
Escherichia coli [3]
  MIC: ≥ 16 µg/mL

## CO[C@@H]1[C@@H](OC(N)=O)[C@@H](O)[C@H](Oc2ccc3c(O)c(NC(=O)c4cc(O)c(O)c(CC=C(C)C)c4)c(=O)oc3c2C)OC1(C)C
Staphylococcus aureus [4]
  MIC: 8 to 16 µg/mL (≈ 12.7 to 25.5 µM)

## O=C1NC(=O)C(c2c[nH]c3ccccc23)=C1c1ccc(O)c([N+](=O)[O-])c1
Bacillus subtilis [5]
  MIC: 3 to 25 µg/mL (≈ 8.59 to 71.6 µM)
Micrococcus luteus
  MIC: 3 to 25 µg/mL (≈ 8.59 to 71.6 µM)
Escherichia coli [6]
  MIC: 3 to 25 µg/mL (≈ 8.59 to 71.6 µM)
Proteus vulgaris
  MIC: 3 to 25 µg/mL (≈ 8.59 to 71.6 µM)

## CC[C@H]1[C@@H]2C=C[C@@H]3[C@H]4/C=C/CC(=O)NCCC[C@@H]5NC(=O)C(=C5O)C(=O)/C=C/[C@@H]4C[C@@H]3[C@H]2C[C@H]1C
Staphylococcus aureus [4]
  MIC: 1 to 4 µg/mL (≈ 2.09 to 8.36 µM)

## CC(=O)O[C@H]1[C@@H](O)[C@H](Oc2ccc3c(O)c(NC(=O)c4cc(O)c(O)c(CC=C(C)C)c4)c(=O)oc3c2C)OC(C)(C)[C@@H]1O
Staphylococcus aureus [4]
  MIC: > 64 µg/mL

## O=C1N/C(=N\O)C(c2ccccc2)=C1c1ccc(O)c([N+](=O)[O-])c1
Bacillus subtilis [5]
  MIC: 3 to 25 µg/mL (≈ 9.22 to 76.9 µM)
Micrococcus luteus
  MIC: 3 to 25 µg/mL (≈ 9.22 to 76.9 µM)
Escherichia coli [6]
  MIC: 3 to 25 µg/mL (≈ 9.22 to 76.9 µM)
Proteus vulgaris
  MIC: 3 to 25 µg/mL (≈ 9.22 to 76.9 µM)

## CC(C)=CCc1cc(C(=O)Nc2c(O)c3ccc(O[C@@H]4OC(C)(C)[C@H](O)[C@@H](O)[C@H]4O)c(C)c3oc2=O)cc(O)c1O
Staphylococcus aureus [4]
  MIC: > 64 µg/mL

## O=C1N/C(=N\O)C(c2ccc(O)c([N+](=O)[O-])c2)=C1c1ccccc1
Bacillus subtilis [5]
  MIC: 3 to 25 µg/mL (≈ 9.22 to 76.9 µM)
Micrococcus luteus
  MIC: 3 to 25 µg/mL (≈ 9.22 to 76.9 µM)
Escherichia coli [6]
  MIC: 3 to 25 µg/mL (≈ 9.22 to 76.9 µM)
Proteus vulgaris
  MIC: 3 to 25 µg/mL (≈ 9.22 to 76.9 µM)

## CCC(C)CC(C)CCCCC[C@@H](O)CC(=O)N[C@@H](CCC(=O)O)C(=O)N[C@@H](CC(C)C)C(=O)N[C@@H](CC(C)C)C(=O)N[C@@H](C(=O)N[C@@H](CC(=O)O)C(=O)N[C@@H](CC(C)C)C(=O)N[C@@H](CC(C)C)C(=O)O)C(C)C (some centres undefined) (X2-ELL[dV]DLL-OH)
Staphylococcus aureus [1]
  MIC: 16 µg/mL (≈ 15.2 µM)
Bacillus subtilis [2]
  MIC: 32 µg/mL (≈ 30.3 µM)
Pseudomonas aeruginosa
  MIC: 16 µg/mL (≈ 15.2 µM)
Salmonella typhi
  MIC: 32 µg/mL (≈ 30.3 µM)

## CC[C@H]1[C@@H]2C=C[C@@H]3[C@H]4C/C=C\C(=O)NCCC[C@@H]5NC(=O)C(=C5O)C(=O)/C=C/[C@@H]4C[C@@H]3[C@H]2C[C@H]1C
Staphylococcus aureus [4]
  MIC: 1 to 4 µg/mL (≈ 2.09 to 8.36 µM)

## CC[C@H]1[C@@H]2C=C[C@@H]3[C@H]4/C=C/CC(=O)NCCC[C@H]5C(O)=C(C(=O)/C=C/[C@@H]4C[C@@H]3[C@H]2C[C@H]1C)C(=O)N5C
Staphylococcus aureus [4]
  MIC: 1 to 4 µg/mL (≈ 2.03 to 8.12 µM)

## CCC(C)CCCCCCC[C@@H](O)CC(=O)N[C@@H](CCC(=O)O)C(=O)N[C@@H](CC(C)C)C(=O)O (some centres undefined)
Staphylococcus aureus [1]
  MIC: 0.01 µg/mL (≈ 0.0205 µM)
Bacillus subtilis [2]
  MIC: 0.01 µg/mL (≈ 0.0205 µM)
Pseudomonas aeruginosa
  MIC: 0.03 µg/mL (≈ 0.0616 µM)
Salmonella typhi
  MIC: 0.03 µg/mL (≈ 0.0616 µM)
